Source: patent publication US8957087B2, “Heterocyclic substituted acardite derivate and application thereof” (Jiangsu Provincial Institute of Materia Medica Co., Ltd., priority 2009, dated 2015)
Like-named read-outs stand apart in the source and are kept apart here.

Columns and labels:
[1] = tested on: Raf-1(truncated); experiment: Raf-1 inhibitor screening by chemoluminescence method; format: biochemical; settings: Final concentration 1 x 1.0*10^−5 mol/ml
From the text: 1. Inhibitory activity of the compound of the present invention on raf kinase
Raf-1 inhibitor screening by chemoluminescence method
Westernblot electrophoresis apparatus Rotaryshaker
Raf-1(truncated), Magnesium/ATP Cocktail, MEK1 unactive

[2] = tested on: human lung cancer cell strain A549; experiment: MTT assay, inhibition of growth of human lung cancer cell strain A549; format: cell-based
Protocol: 4. Using 3-(4,5-dimethylthiazol-2-yl)-2,5-diphenyl tetrazolium bromide assay (MTT) to detect the inhibition effects on the growth of human lung cancer cell strain A549
[Test materials] MTT working solution, F12 medium containing 10% FBS, continuous injectors
(§1) [Tested compound] Compounds 1-38
(§2) [Positive control medicine] Sorafenib, compounds A′, B′, C′ with no substituent or only amino formyl in A ring
The inhibition rate is calculated as follows:
(§3) Relative OD value of conrol well=OD value of control well−OD value of blank well
(§4) Relative OD value of drug well=OD value of drug well−OD value of blank well

[3] = tested on: human high-metastic lung cancer cell 95D; experiment: Inhibition of human high-metastic lung cancer cell 95D migration (Boyden Chamber Transwell); format: cell-based; settings: Final concentration 1 x 1.0*10^(−5) mol/L
Protocol: 5 Inhibition effects of compounds on human high-metastic lung cancer cell 95D migration
[Test materials] Boyden Chamber Transwell chamber (with pore size of 8 μm), human high-metastic lung cancer cell 95D cell strain, 1640 medium containing 10% FBS, 1640 medium containing no serum
as §1, §2
(§5) The inhibition rate is calculated as follows: […]

[4] = tested on: lung cancer cell A549; experiment: Effects on the adhesive ability of lung cancer cell A549; format: cell-based, human; settings: Final concentration 1 x 1.0*10^(−5) mol/L
Protocol: 6. Effects of tested compounds on the adhesive ability of lung cancer cell A549
[Test materials] gelatin, CCK8, poly-lysine (PLL), A549 cell stains, 1640 medium containing 10% FBS
(§6) [Tested compound] Compounds 1-38 to be tested
as §2, §5
Dosing dosing cells without cell group (gelatin adhesive OD/PLL adhesion OD)−Dosing cell group (gelatin adhesive OD/PLL adhesion OD value)
Dosing dosing cells without cell group (gelatin adhesive OD/PLL adhesion OD value)

[5] = tested on: human umbilical vein endothelial cell HUVEC; experiment: Growth of human umbilical vein endothelial cell HUVEC by CCK8 method; format: cell-based; settings: Final concentration 1 x 1.0*10^(−5) mol/L
From the text: 7. Effects of tested compounds on the growth of human umbilical vein endothelial cell HUVEC cell by CCK8 method
[Test materials] CCK8, human umbilical vein endothelial cell HUVEC cell, 1640 medium containing 10% FBS
as §6, §2, §3, §4

[6] = tested on: human umbilical vein endothelial cell HUVEC; experiment: Lumen formation ability of HUVEC (Matrigel method); format: cell-based; settings: Final concentration 1 x 1.0*10^(−5) mol/L
From the text: 8. Inhibition effects of compounds on the lumen formation ability of human umbilical vein endothelial cell HUVEC
[Experimental principles] The human umbilical vein endothelial cells have ability of spontaneously forming blood lumen on Matrigel, which can be used to simulate the process of angiogenesis in vivo. We used Matrigel method to investigate the effects of the compound on the lumen formation ability of human umbilical vein endothelial cell HUVEC.
[Test materials] HUVEC (taking generation 3 to 5 cells for experiments after obtained from primary separation and cultured at 37 under the conditions of 5% CO2), Matrigel, cell culture medium M199.
as §1, §2, §5

[7] = tested on: human lung cancer A549 transplantation tumor; format: in vivo; settings: BALB/cA nude mice; 60 mg/kg, 6 times every week for 3 weeks; Sorafenib oral 60 mg/kg
Protocol: 9. Tumor inhibition rate of tested compounds on human lung cancer A549 cell transplantation model in nude mice
(§7) [Test animals] female BALB/cA nude mice, 35-40 days old, with weight of 18-22g. There were 12 mice in the negative conrol group and 6 mice in the treatment group.
(§8) The dosage of the compound was 60 mg/kg, 6 times every week for 3 weeks. […] Equal amount of normal saline was administrated in the negative control group. Observe for one week after administration.

[8] = tested on: human liver cancer cell bel-7402 transplantation tumor; format: in vivo; settings: BALB/cA nude mice; 60 mg/kg, 6 times every week for 3 weeks; Sorafenib oral 60 mg/kg
Protocol: 10. Tumor inhibition rate of tested compounds on human liver cancer cell bel-7402 transplantation tumor model in nude mice
as §7, §8

[9] = tested on: renal carcinoma cell line GCR-1 transplanted tumor; format: in vivo, BALB/cA nude mice; settings: BALB/cA nude mice; 60 mg/kg, 6 times every week for 3 weeks; Sorafenib oral 60 mg/kg
Protocol: 11. Tumor inhibition rate of medicines on renal carcinoma cell line GCR-1 transplanted tumor model in nude mice
as §7
[Test method] […] The dosage of the medicine was 60 mg/kg, 6 times every week for 3 weeks. […] Equal amount of normal saline was administrated in the negative control group. Observe for one week after administration.

[10] = tested on: mice S180 sarcoma; experiment: Experimental therapeutic action on S180 sarcoma mice; settings: mice S180 sarcoma, 60 mg/kg orally for 9 days
[11] = tested on: Human colon cancer HT-29 transplantable tumor; experiment: Human colon cancer HT-29 transplantable tumor in nude mice; settings: HT-29 in nude mice, 60 mg/kg ig 9 times
Protocol: Experimental therapeutic action of the compound in the present invention on Human colon cancer HT-29 transplantable tumor in nude mice.
Take eugenic tumor tissues and cut into about 1.5 mm^3, and then incoculate subcutaneously at the right armpit of nude mice under the sterile conditions. The diameter of the transplantable tumor in nude mice was determined with a vernier caliper, and the animals were divided into groups after the tumors were grown to 100-300 mm^3. Using the method of measuring the tumor diameter, dynamically observe the antitumor effects of tested materials. The diameter of the tumor was determined three times every week and the mouse weight was weighed at the same time. […] The solvent was intragastrically administrated as the control for continuous 9 times. Equal amount of control was administrated in the negative control group.
Tumor volume (TV) is calculated as: TV=½×a×b^2, wherein a and b respectively represent length and width.
Relative tumor volume (RTV) is calculated as: RTV=TVt/TV0, wherein TV0 is the tumor volume when administrated according to different cages and TVt is the tumor volume measured each time.
Relative tumor reproduction rate T/C (%) is calculated as follows:
TRTV: RTV in the treatment group; CRTV: RTV in the negative control group.
The test results used relative tumor reproduction rate T/C (%) as evaluating indicator of anti-tumor activity.

[12] = Final concentration 1 x 1.0*10^(−5) mol/L

Molecule	Inhibition rate % on raf kinase [1] [%]	Inhibition rate, growth of human lung cancer cell A549 [2, 12] [%]	Inhibition rate, 95D cell strain migration [3] [%]	Inhibition rate, adhesion ability of human lung cancer cell A549 [4] [%]	Inhibition rate, growth of HUVEC cell [5] [%]	Inhibition rate, lumen formation ability of HUVEC [6] [%]	Relative tumor reproduction rate T/C (%) on human lung cancer A549 transplantation tumor in nude mice [7] [%]	Relative tumor reproduction rate T/C (%) on human liver cancer cell bel-7402 transplantation tumor model in nude mice [8] [%]	Relative tumor reproduction rate T/C (%) on human renal carcinoma GCR-1 cell transplanted tumor model in nude mice [9] [%]	Tumor growth inhibition rate (%) [10] [%]	Relative tumor reproduction rate T/C (%) [11] [%]	Inhibition rate, growth of human lung cancer cell A549 [2] [%]
COc1ccc2nccc(Oc3ccc(NC(=O)Nc4ccc(Br)c(C(F)(F)F)c4)cc3)c2c1 [Compound 18]	34.4	90.71	93.73	93.72	5.71	63.71	12.5	12.7	12.3	35.7	40.2	–
Nc1ccc2c(Oc3ccc(NC(=O)Nc4ccc(F)c(C(F)(F)F)c4)cc3)cncc2c1 [Compound 26, N-(4-fluoro-3-(trifluoromethyl)phenyl)-N′-(4-(4-(7-amino-isoquinolyl)oxy)phenyl)urea]	15.3	–	60.52	68.57	32.50	70.53	33.1	36.1	24.2	7.6	41.1	55.50
CNC(=O)c1nc(Oc2ccc(NC(=O)Nc3ccc(F)c(C(F)(F)F)c3)cc2)c2ccc(F)cc2n1 [Compound 5, N-(4-fluoro-3-(trifluoromethyl)phenyl)-N′-(4-(2-(N-methylaminoformoxyl)-4-(7 fluoroquinazolinyl)oxy)phenyl)urea]	98.9	93.50	97.51	87.58	8.50	87.50	11.6	15.7	11.2	49.3	38.24	–
N-(4-fluoro-3-(trifluoromethyl)phenyl)-N′-(4-(4-(2-methyl-pyrryl)oxy)phenyl)urea [Compound 29]	85.3	–	61.44	91.40	21.40	86.43	14.7	16.2	12.8	14.2	78.3	86.42
